Measurements from patent publication US20120156615A1, “CYCLIC COMPOUND, PROCESS FOR PRODUCTION OF THE CYCLIC COMPOUND, RADIATION-SENSITIVE COMPOSITION, AND METHOD FOR FORMATION OF RESIST PATTERN” (MITSUBISHI GAS CHEMICAL COMPANY, INC., priority 2009, published 2012).

Test: Solubility of compound in safety solvent
Type: physicochemical
Conditions: for solubility in CHN (dissolved amount): solvent cyclohexanone (CHN); for solubility in PGME (dissolved amount): solvent propylene glycol monomethyl ether (PGME)
Experimental: (1) Solubility of Compound in Safety Solvent
The compounds obtained in Synthesis Examples 1 to 6 and Synthesis 1 to 4 were evaluated for the solubility in propylene glycol monomethyl ether (PGME) and cyclohexanone (CHN).
A: 20.0 wt %≦dissolved amount
B: 1.0 wt %≦dissolved amount<20.0 wt %
C: dissolved amount<1.0 wt %

With CC(C)c1ccc(C2c3cc(c(O)cc3O)C(c3ccc(C(C)C)cc3)c3cc(c(O)cc3O)C(c3ccc(C(C)C)cc3)c3cc(c(O)cc3O)C(c3ccc(C(C)C)cc3)c3cc2c(O)cc3O)cc1 (stereo not shown) [CR-1A] the “solubility in CHN (dissolved amount)” value was “B (1.0 wt %≦dissolved amount<20.0 wt %)” and the “solubility in PGME (dissolved amount)” value was “B (1.0 wt %≦dissolved amount<20.0 wt %)”.

With Oc1cc(O)c2cc1C(c1ccc(C3CCCCC3)cc1)c1cc(c(O)cc1O)C(c1ccc(C3CCCCC3)cc1)c1cc(c(O)cc1O)C(c1ccc(C3CCCCC3)cc1)c1cc(c(O)cc1O)C2c1ccc(C2CCCCC2)cc1 (stereo not shown) [CR-4A] the “solubility in CHN (dissolved amount)” value was “B (1.0 wt %≦dissolved amount<20.0 wt %)” and the “solubility in PGME (dissolved amount)” value was “B (1.0 wt %≦dissolved amount<20.0 wt %)”.
